Experimental data reported in ChEMBL document CHEMBL1201862, “PubChem BioAssay data set” (2004).
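A five-concentration, 48-hour dose response in 96-well plates underlies each endpoint, interpolated linearly between surrounding concentrations. GI50: concentration for 50% inhibition of growth.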 Active and inactive are the calls of the source. Cut-off read from the data, not from the text of the source: active = GI50 up to about 1.1 µM and inactive = higher.

Tests used:
Test in all cases: NCI anticancer screen, dose series, 48 h
SK-MEL-28 = test system: SK-MEL-28
SF-295 = test system: SF-295
ACHN = test system: ACHN
HCT-116 = test system: HCT-116
PC-3 = test system: PC-3
SN12C = test system: SN12C
Malme-3M = test system: Malme-3M
HCT-15 = test system: HCT-15
OVCAR-8 = test system: OVCAR-8
EKVX = test system: EKVX
A549 = test system: A549
786-0 = test system: 786-0
LOX IMVI = test system: LOX IMVI
SNB-75 = test system: SNB-75
UACC-62 = test system: UACC-62
CAKI-1 = test system: CAKI-1
HCC 2998 = test system: HCC 2998
U-251 = test system: U-251
SF-539 = test system: SF-539
OVCAR-3 = test system: OVCAR-3
MDA-MB-435 = test system: MDA-MB-435
HL-60 = test system: HL-60
HOP-92 = test system: HOP-92
K562 = test system: K562
NCI-H460 = test system: NCI-H460
CCRF-CEM = test system: CCRF-CEM
BT-549 = test system: BT-549
MDA-N = test system: MDA-N
KM12 = test system: KM12
NCI-H522 = test system: NCI-H522
MOLT-4 = test system: MOLT-4
MDA-MB-231 = test system: MDA-MB-231
HOP-62 = test system: HOP-62
M14 = test system: M14
T47D = test system: T47D
UACC-257 = test system: UACC-257
SF-268 = test system: SF-268
MCF7 = test system: MCF7
UO-31 = test system: UO-31
SK-MEL-2 = test system: SK-MEL-2
OVCAR-5 = test system: OVCAR-5
COLO 205 = test system: COLO 205
SW-620 = test system: SW-620
RXF 393 = test system: RXF 393
SK-OV-3 = test system: SK-OV-3
TK-10 = test system: TK-10
NCI-H23 = test system: NCI-H23
OVCAR-4 = test system: OVCAR-4
SNB-19 = test system: SNB-19
NCI/ADR-RES = test system: NCI/ADR-RES
NCI-H226 = test system: NCI-H226
HT-29 = test system: HT-29
RPMI-8226 = test system: RPMI-8226
A498 = test system: A498
SK-MEL-5 = test system: SK-MEL-5
DU-145 = test system: DU-145
IGROV-1 = test system: IGROV-1
Hs-578T = test system: Hs-578T
SR = test system: SR

CN(C)c1ccc(C=c2c3ccccc3n3c2cc(-c2ccc(Cl)cc2)[n+]3C)cc1
GI50 (SK-MEL-28): 0.519 µM (active) | GI50 (SF-295): 0.501 µM (active) | GI50 (ACHN): 0.514 µM (active) | GI50 (HCT-116): 0.0653 µM (active) | GI50 (PC-3): 0.167 µM (active) | GI50 (SN12C): 0.254 µM (active) | GI50 (Malme-3M): 0.333 µM (active) | GI50 (HCT-15): 1.47 µM | GI50 (OVCAR-8): 0.147 µM (active) | GI50 (EKVX): 0.617 µM (active) | GI50 (A549): 0.238 µM (active) | GI50 (786-0): 0.267 µM (active) | GI50 (LOX IMVI): 0.194 µM (active) | GI50 (SNB-75): 0.307 µM (active) | GI50 (UACC-62): 0.291 µM (active) | GI50 (CAKI-1): 0.259 µM (active) | GI50 (HCC 2998): 0.603 µM (active) | GI50 (U-251): 0.0269 µM (active) | GI50 (SF-539): 0.228 µM (active) | GI50 (OVCAR-3): 0.295 µM (active) | GI50 (MDA-MB-435): 0.207 µM (active) | GI50 (HL-60): 0.101 µM (active) | GI50 (HOP-92): 0.221 µM (active) | GI50 (K562): < 0.0462 µM (active) | GI50 (NCI-H460): 0.263 µM (active) | GI50 (CCRF-CEM): 0.0649 µM (active) | GI50 (BT-549): 0.201 µM (active) | GI50 (MDA-N): 0.327 µM (active) | GI50 (KM12): 0.105 µM (active) | GI50 (NCI-H522): 0.0577 µM (active) | GI50 (MOLT-4): 0.147 µM (active) | GI50 (MDA-MB-231): 0.217 µM (active) | GI50 (HOP-62): 0.406 µM (active) | GI50 (M14): 0.301 µM (active) | GI50 (T47D): 0.133 µM (active) | GI50 (UACC-257): 0.158 µM (active) | GI50 (SF-268): 0.473 µM (active) | GI50 (MCF7): 0.0953 µM (active) | GI50 (UO-31): 0.904 µM (active) | GI50 (SK-MEL-2): 0.237 µM (active) | GI50 (OVCAR-5): 1.04 µM (active) | GI50 (COLO 205): 0.0705 µM (active) | GI50 (SW-620): 0.242 µM (active) | GI50 (RXF 393): 0.822 µM (active) | GI50 (SK-OV-3): 0.331 µM (active) | GI50 (TK-10): 0.578 µM (active) | GI50 (NCI-H23): 0.195 µM (active) | GI50 (OVCAR-4): 0.748 µM (active) | GI50 (SNB-19): 0.268 µM (active) | GI50 (NCI/ADR-RES): 6.41 µM (inactive) | GI50 (NCI-H226): 0.573 µM (active) | GI50 (HT-29): 0.315 µM (active) | GI50 (RPMI-8226): 0.0372 µM (active) | GI50 (A498): 1.51 µM (inactive) | GI50 (SK-MEL-5): 0.167 µM (active) | GI50 (DU-145): 0.177 µM (active)

C=CC[C@H]1[C@@H](O[Si](C)(C)C(C)(C)C)[C@H](n2ccc(=O)[nH]c2=O)O[C@@H]1CO[Si](C)(C)C(C)(C)C
GI50 (SK-MEL-28): 1.55 µM (inactive) | GI50 (SF-295): 1.98 µM (inactive) | GI50 (ACHN): 2.33 µM (inactive) | GI50 (HCT-116): 1.47 µM (inactive) | GI50 (PC-3): 2.44 µM (inactive) | GI50 (SN12C): 1.52 µM (inactive) | GI50 (Malme-3M): 2.89 µM (inactive) | GI50 (HCT-15): 1.77 µM | GI50 (OVCAR-8): 1.87 µM (inactive) | GI50 (EKVX): 1.67 µM (inactive) | GI50 (A549): 1.85 µM (inactive) | GI50 (786-0): 1.56 µM (inactive) | GI50 (LOX IMVI): 1.63 µM (inactive) | GI50 (SNB-75): 1.34 µM (inactive) | GI50 (UACC-62): 1.74 µM (inactive) | GI50 (CAKI-1): 2.23 µM (inactive) | GI50 (HCC 2998): 1.93 µM (inactive) | GI50 (U-251): 2.09 µM (inactive) | GI50 (SF-539): 4.19 µM (inactive) | GI50 (OVCAR-3): 1.52 µM (inactive) | GI50 (MDA-MB-435): 2 µM (inactive) | GI50 (HL-60): 0.971 µM (active) | GI50 (HOP-92): 1.21 µM (inactive) | GI50 (K562): 2.2 µM (inactive) | GI50 (NCI-H460): 1.9 µM (inactive) | GI50 (IGROV-1): 2.32 µM (inactive) | GI50 (CCRF-CEM): 2.52 µM (inactive) | GI50 (BT-549): 3.05 µM (inactive) | GI50 (KM12): 1.65 µM (inactive) | GI50 (NCI-H522): 1.76 µM (inactive) | GI50 (MOLT-4): 1.99 µM (inactive) | GI50 (MDA-MB-231): 1.96 µM (inactive) | GI50 (HOP-62): 1.76 µM (inactive) | GI50 (M14): 1.57 µM (inactive) | GI50 (T47D): 2.61 µM (inactive) | GI50 (UACC-257): 2.45 µM (inactive) | GI50 (SF-268): 2.99 µM (inactive) | GI50 (MCF7): 1.77 µM (inactive) | GI50 (UO-31): 1.69 µM (inactive) | GI50 (SK-MEL-2): 2.62 µM (inactive) | GI50 (OVCAR-5): 1.5 µM (inactive) | GI50 (Hs-578T): 3.01 µM (inactive) | GI50 (COLO 205): 1.79 µM (inactive) | GI50 (SW-620): 1.82 µM (inactive) | GI50 (RXF 393): 1.56 µM (inactive) | GI50 (SK-OV-3): 1.36 µM (inactive) | GI50 (TK-10): 2.97 µM (inactive) | GI50 (SR): 2.44 µM (inactive) | GI50 (NCI-H23): 2.14 µM (inactive) | GI50 (OVCAR-4): 1.82 µM (inactive) | GI50 (SNB-19): 2.39 µM (inactive) | GI50 (NCI/ADR-RES): 2.15 µM (inactive) | GI50 (NCI-H226): 4.11 µM (inactive) | GI50 (HT-29): 1.59 µM (inactive) | GI50 (RPMI-8226): 2.11 µM (inactive) | GI50 (A498): 3.01 µM (inactive) | GI50 (SK-MEL-5): 1.72 µM (inactive) | GI50 (DU-145): 2.09 µM (inactive)

C=C[C@@]1(C)CC(=O)[C@]2(O)[C@@]3(C)[C@@H](OC(C)=O)CCC(C)(C)[C@@H]3[C@H](O)[C@H](OC(C)=O)[C@@]2(C)O1
GI50 (SK-MEL-28): > 100 µM (inactive) | GI50 (SF-295): > 100 µM (inactive) | GI50 (ACHN): > 100 µM (inactive) | GI50 (HCT-116): > 100 µM (inactive) | GI50 (PC-3): > 100 µM (inactive) | GI50 (SN12C): > 100 µM (inactive) | GI50 (HCT-15): > 100 µM | GI50 (OVCAR-8): > 100 µM (inactive) | GI50 (EKVX): > 100 µM (inactive) | GI50 (A549): > 100 µM (inactive) | GI50 (786-0): 83.6 µM (inactive) | GI50 (LOX IMVI): > 100 µM (inactive) | GI50 (SNB-75): 27.6 µM (inactive) | GI50 (UACC-62): > 100 µM (inactive) | GI50 (CAKI-1): > 100 µM (inactive) | GI50 (HCC 2998): > 100 µM (inactive) | GI50 (U-251): > 100 µM (inactive) | GI50 (SF-539): > 100 µM (inactive) | GI50 (OVCAR-3): > 100 µM (inactive) | GI50 (MDA-MB-435): > 100 µM (inactive) | GI50 (HOP-92): > 100 µM (inactive) | GI50 (K562): > 100 µM (inactive) | GI50 (NCI-H460): > 100 µM (inactive) | GI50 (IGROV-1): > 100 µM (inactive) | GI50 (BT-549): > 100 µM (inactive) | GI50 (MDA-N): > 100 µM (inactive) | GI50 (KM12): 13.4 µM (inactive) | GI50 (MOLT-4): > 100 µM (inactive) | GI50 (MDA-MB-231): > 100 µM (inactive) | GI50 (HOP-62): > 100 µM (inactive) | GI50 (M14): > 100 µM (inactive) | GI50 (T47D): > 100 µM (inactive) | GI50 (UACC-257): > 100 µM (inactive) | GI50 (MCF7): > 100 µM (inactive) | GI50 (UO-31): > 100 µM (inactive) | GI50 (SK-MEL-2): > 100 µM (inactive) | GI50 (OVCAR-5): > 100 µM (inactive) | GI50 (SW-620): > 100 µM (inactive) | GI50 (SK-OV-3): > 100 µM (inactive) | GI50 (SR): > 100 µM (inactive) | GI50 (NCI-H23): > 100 µM (inactive) | GI50 (OVCAR-4): > 100 µM (inactive) | GI50 (SNB-19): > 100 µM (inactive) | GI50 (NCI/ADR-RES): > 100 µM (inactive) | GI50 (NCI-H226): > 100 µM (inactive) | GI50 (HT-29): > 100 µM (inactive) | GI50 (A498): > 100 µM (inactive) | GI50 (DU-145): > 100 µM (inactive)
